In patent US20250367269A1, “KYNURENINE AMINOTRANSFERASE AND PRODUCTS THEREOF FOR THE TREATMENT OF ARTHRITIC DISEASES” (Institut National de Recherche Pour L'Agriculture, …, priority 2022, published 2025) one finds arthritis severity data, which are given here for one molecule.

Structures are written as SMILES.

The test system of the test is collagen-antibody induced arthritis. As to the kind of experiment: collagen-antibody induced arthritis model. Conditions: administration in collagen-antibody induced arthritis mouse model; summary statement, no details. Format: in vivo, C57BL6J male mice. The protocol:
C57BL6J male mice were injected intraperitoneally with a cocktail of arthritogenic anti-type II collagen (2 mg/mouse) at day 0. At day 3, mice received an injection of lipopolysaccharide from bacterial cells walls of E. coli 055: B5. The severity of arthritis was evaluated every other day on each paw with a score from 0 to 4, for a maximal score of 16 by animal (0=normal joint, 1=moderate redness and slight swelling or swelling of one or two digits, 2=moderate redness and moderate paw swelling or swelling more than three digits, 3=redness and swelling from tarsal joints to metatarsal joints, 4=severe redness and severe swelling of the entire paw). Hindpaw swelling was measured at the same time by plethysmography. Paw volume determined prior to disease induction was used as the baseline. The development of arthritis was analyzed by histological assessment. Hindpaws were dissected then fixed in 4% formalin (Labonord). Hindpaws were further decalcified in 10% EDTA for 1 month and embedded in paraffin blocks. Five μm-thick tissue sections were cut and two stainings were performed, hematoxylin, eosin and toluidine blue. Histological examination was carried out blindly by three independent observers. Synovium from ankle joint was graded on a scale of 0 to 3 (with 0=normal and 3=major changes) for synovial hyperplasia (width of lining layer) and tissue cell infiltration. […]

For `O=C(O)c1cc(O)c2cccc(O)c2n1` [xanthurenic acid], the arthritis severity result was “reduces arthritis severity”.
